Measurements reported in EP0414533A1, “Use of iodopropargyl esters of alpha-amino acid derivatives as antimicrobial agents” (ROHM AND HAAS COMPANY, priority 1989, dated 1991).
Values after ≈ are worked out from the molar mass of the structure shown. Structures can show the parent of a compound that is named as a salt. Where two headings read alike, the source gives them in different places.

Tests used:
Aspergillus niger (ANIG) = experiment: Minimum inhibitory concentration (MIC), broth two-fold serial dilution test; type: cell-based; details: Aspergillus niger
[1] = system: Aureobasidium pullulans (APUL); experiment: as above; type: cell-based; details: Aureobasidium pullulans
[2] = system: MIXED COOLING TOWER ALGAE; experiment: MIC test against mixed cooling tower algae; type: cell-based, green algae and blue-green bacteria; details: Table VIII
Description: The algae culture contains green algae and blue-green bacteria, and is obtained from a cooling tower in Spring House, Pennsylvania. The algae culture is grown in Allen's medium on a rotary shaker under flourescent room lighting. This culture is further diluted with Allen's medium and then added to the test vessel.

8 FUNGI = experiment: Microbicides secondary test against 8 fungi on Mycophile Agar at pH 5.0 (Table VI); type: cell-based; set-up: key: 1= no growth; 0= growth of the indicated fungi at dose indicated in ppm; details: for ANIG growth: Aspergillus niger; for APUL growth: Aureobasidium pullulans; for CGLO growth: Chaetomium globosum; for CRES growth: Cladosporium resinae; for GTRA growth: Gloeophyllum trabeum; for PFUN growth: Penicillium funiculosum; for RRUB growth: Rhodotorula rubra; for SSER growth: Sacharomyces cerevisiae
Source text: The results of the minimum inhibitory concentration (MIC) tests of compounds of this invention are shown in Tables IIIa IIIb, IIIc, V, VI, VII, and VIII against the microorganisms shown in Table IX.

THREE FUNGI = experiment: MIC test against three fungi in Mycophile Broth, pH 5.0, read after 8 days (Table VII); type: cell-based; details: 192 h
[3] = system: Pseudomonas fluorescens (PSFL); experiment: Minimum inhibitory concentration (MIC), broth two-fold serial dilution test; details: Pseudomonas fluorescens
[4] = system: Pseudomonas aerugenosa (PSAE); experiment: as above; details: Pseudomonas
Source text: When the test is ready to be done, each vessel in the dilution series, except the first vessel, contains an equal volume of compound free broth. The first vessel contains twice the volume of broth with the starting concentration of test compound. One half of the broth from the first vessel is transferred to the second vessel. After being mixed, one half the resulting volume is removed from the second vessel and transferred to the third vessel. The entire cycle is repeated sufficiently to give a series of concentrations amounting to 500, 250, 125, 63, 31, 16, 8, and 4 ppm (or 100, 50, 25, 12.5, 6.2, 3.1, 1.6, and 0.8), respectively.
Each vessel is then inoculated with a cell suspension of the appropriate test organism. Bacteria are grown in broth, fungi on agar slants for a time and at a temperature appropriate to the species being tested, and algae are a mixture of green algae and blue-green bacteria grown in a nutrient media. At the end of the growth period, in the case of bacteria, the broth is vortexed to disperse the cells.
The vessels are then incubated at the appropriate temperature. After the incubation, the vessels are examined for growth/no growth.

Escherichia coli (ECOL) = experiment: as above; details: Escherichia coli
[5] = system: Staphylococcus aureus (SAUR); experiment: as above; details: Staphylococcus aureus
Botrytis cinerea (BOC) = experiment: In-vitro plant fungicide test; type: cell-based; details: Botrytis cinerea, 25 ppm; Table IVa; *=Phytotoxic; read-out: % Control at 25 ppm BOC
Fusarium roseum (FUS) = experiment: In-vitro plant fungicide test; type: cell-based; details: Fusarium sambucinum, read-out: % Control at 25 ppm FUS, 25 ppm; Table IVa; *=Phytotoxic
[6] = system: Cochliobolus sativus (HEL); experiment: In-vitro plant fungicide test; type: cell-based; details: Bipolaris sorokiniana, 25 ppm; Table IVa; *=Phytotoxic; read-out: % Control at 25 ppm HEL
[7] = system: Phytophthora capsici (PHY); experiment: In-vitro plant fungicide test; type: cell-based; details: Phytophthora capsici; 25 ppm; Table IVa; read-out: % Control at 25 ppm PHY
Piricularia oryzae (PIR) = experiment: microbe, parasite or virus in culture; type: cell-based; details: read-out: % Control at 25 ppm PIR
Pythium ultimum (PYU) = experiment: In-vitro plant fungicide test; type: cell-based; details: Globisporangium ultimum; 25 ppm; Table IVa; read-out: % Control at 25 ppm PYU
Rhizoctonia solani (RHI) = experiment: In-vitro plant fungicide test; type: cell-based; details: Rhizoctonia solani; 25 ppm; Table IVa; read-out: % Control at 25 ppm RHI
Septoria nodorum (SEP) = experiment: In-vitro plant fungicide test; type: cell-based; details: Parastagonospora nodorum, 25 ppm; Table IVa; read-out: % Control at 25 ppm SEP
[8] = system: Xanthomonas campestris (XAN); experiment: In-vitro plant fungicide test; type: cell-based; details: Xanthomonas campestris; 25 ppm; Table IVa; read-out: % Control at 25 ppm XAN
[9] = Aspergillus niger, pH 5, read-out: MIC ANIG, Aspergillus niger, serial dilutions from 50 ppm, read after 8 days of incubation
[10] = Aureobasidium pullulans, pH 5, read-out: MIC APUL, Aureobasidium pullulans, serial dilutions from 50 ppm, read after 8 days of incubation
[11] = Gloeophyllum trabeum, pH 5, read-out: MIC GTRA, Gloeophyllum trabeum, serial dilutions from 50 ppm, read after 8 days of incubation

Work on O=C(CNC(=O)OCc1ccccc1)OCC#CI [Compound 31, N-benzyloxycarbonylglycine iodopropargyl ester] yielded an MIC (Aspergillus niger (ANIG); IIIB, trypticase soy broth (complex media), Table IIIb, read-out: MIC (F) ANIG) of 2 µg/mL (≈ 5.36 µM), an MIC ([1]; IIIB, trypticase soy broth (complex media), Table IIIb, read-out: MIC (F) APUL) of 4 µg/mL (≈ 10.7 µM) and an MIC [2] of 6.2 µg/mL (≈ 16.6 µM). It also gave an ANIG growth (8 FUNGI; 0.2 PPM) of 0, an ANIG growth (8 FUNGI; 1.0 PPM) of 0 and an ANIG growth (8 FUNGI; 2.5 PPM) of 1. It also gave an ANIG growth (8 FUNGI; 25 PPM) of 1, an APUL growth (8 FUNGI; 0.2 PPM) of 0 and an APUL growth (8 FUNGI; 1.0 PPM) of 0. For the same molecule, the APUL growth (8 FUNGI; 2.5 PPM) was 0, the APUL growth (8 FUNGI; 25 PPM) was 1 and the CGLO growth (8 FUNGI; 0.2 PPM) was 0. It also gave a CGLO growth (8 FUNGI; 1.0 PPM) of 0, a CGLO growth (8 FUNGI; 2.5 PPM) of 1 and a CGLO growth (8 FUNGI; 25 PPM) of 1. The CRES growth (8 FUNGI; 0.2 PPM) was 0, the CRES growth (8 FUNGI; 1.0 PPM) was 0 and the CRES growth (8 FUNGI; 2.5 PPM) was 0. For the same molecule, the CRES growth (8 FUNGI; 25 PPM) was 1, the GTRA growth (8 FUNGI; 0.2 PPM) was 0 and the GTRA growth (8 FUNGI; 1.0 PPM) was 0. For the same molecule, the GTRA growth (8 FUNGI; 2.5 PPM) was 1, the GTRA growth (8 FUNGI; 25 PPM) was 1 and the PFUN growth (8 FUNGI; 0.2 PPM) was 0. The PFUN growth (8 FUNGI; 1.0 PPM) was 0, the PFUN growth (8 FUNGI; 2.5 PPM) was 1 and the PFUN growth (8 FUNGI; 25 PPM) was 1. The RRUB growth (8 FUNGI; 0.2 PPM) was 0, the RRUB growth (8 FUNGI; 1.0 PPM) was 0 and the RRUB growth (8 FUNGI; 2.5 PPM) was 0. The RRUB growth (8 FUNGI; 25 PPM) was 1, the SSER growth (8 FUNGI; 0.2 PPM) was 0 and the SSER growth (8 FUNGI; 1.0 PPM) was 0. For the same molecule, the SSER growth (8 FUNGI; 2.5 PPM) was 0, the SSER growth (8 FUNGI; 25 PPM) was 1 and the MIC (THREE FUNGI; Aspergillus niger, serial dilutions from 50 ppm, read after 8 days of incubation, read-out: MIC ANIG) was 1.6 µg/mL (≈ 4.29 µM). It also gave an MIC (THREE FUNGI; Aureobasidium pullulans, serial dilutions from 50 ppm, read after 8 days of incubation, read-out: MIC APUL) of 6.2 µg/mL (≈ 16.6 µM), an MIC (THREE FUNGI; Gloeophyllum trabeum, serial dilutions from 50 ppm, read after 8 days of incubation, read-out: MIC GTRA) of 0.8 µg/mL (≈ 2.14 µM) and an MIC ([3]; IIIB, read-out: MIC (G-) PSFL, trypticase soy broth (complex media), Table IIIb) of 32 µg/mL (≈ 85.8 µM). It also gave an MIC ([4]; IIIB, read-out: MIC (G-) PSAE, trypticase soy broth (complex media), Table IIIb) of 63 µg/mL (≈ 169 µM), an MIC (Escherichia coli (ECOL); IIIB, read-out: MIC (G-) ECOL, trypticase soy broth (complex media), Table IIIb) of 250 µg/mL (≈ 670 µM) and an MIC ([5]; IIIB, read-out: MIC (G+) SAUR, trypticase soy broth (complex media), Table IIIb) of 32 µg/mL (≈ 85.8 µM).

C[C@H](N)C(=O)N[C@@H](C)C(=O)OCC#CI [Compound 18, L-alanyl-L-alanine iodopropargyl ester trifluoroacetate] showed an MIC (Aspergillus niger (ANIG); read-out: MIC (F) ANIG, M9G (minimal salts media with glucose), Table IIIc, iodopropargyl esters of peptides) of less than 0.8 µg/mL, an MIC ([1]; read-out: MIC (F) APUL, M9G (minimal salts media with glucose), Table IIIc, iodopropargyl esters of peptides) of less than 0.8 µg/mL and an inhibition of growth at 25 ppm (Botrytis cinerea (BOC)) of 50%. It also gave an inhibition of growth at 25 ppm (Fusarium roseum (FUS)) of 100%, an inhibition of growth at 25 ppm [6] of 100% and an inhibition of growth at 25 ppm [7] of 100%. The inhibition of growth at 25 ppm (Piricularia oryzae (PIR)) was 100%, the inhibition of growth at 25 ppm (Pythium ultimum (PYU)) was 100% and the inhibition of growth at 25 ppm (Rhizoctonia solani (RHI)) was 100%. For the same molecule, the inhibition of growth at 25 ppm (Septoria nodorum (SEP)) was 100%, the inhibition of growth at 25 ppm [8] was 0% and the MIC (THREE FUNGI; [9]) was 12.5 µg/mL. The MIC (THREE FUNGI; [10]) was 50 µg/mL, the MIC (THREE FUNGI; [11]) was 12.5 µg/mL and the MIC ([3]; read-out: MIC (G-) PSFL, M9G (minimal salts media with glucose), Table IIIc, iodopropargyl esters of peptides) was 100 µg/mL. For the same molecule, the MIC ([4]; read-out: MIC (G-) PSAE, M9G (minimal salts media with glucose), Table IIIc, iodopropargyl esters of peptides) was 100 µg/mL, the MIC (Escherichia coli (ECOL); read-out: MIC (G-) ECOL, M9G (minimal salts media with glucose), Table IIIc, iodopropargyl esters of peptides) was 100 µg/mL and the MIC ([5]; read-out: MIC (G+) SAUR, M9G (minimal salts media with glucose), Table IIIc, iodopropargyl esters of peptides) was greater than 100 µg/mL.

N[C@@H](COCc1ccccc1)C(=O)OCC#CI [Compound 9, O-benzyl-L-serine iodopropargyl ester trifluoroacetate] showed an MIC (Aspergillus niger (ANIG); read-out: MIC (F) ANIG, M9G (minimal salts media with glucose), Table IIIa) of less than 4 µg/mL, an MIC ([1]; read-out: MIC (F) APUL, M9G (minimal salts media with glucose), Table IIIa) of less than 4 µg/mL and an inhibition of growth at 25 ppm (Botrytis cinerea (BOC)) of 100%. The inhibition of growth at 25 ppm (Fusarium roseum (FUS)) was 100%, the inhibition of growth at 25 ppm [6] was 100% and the inhibition of growth at 25 ppm [7] was 100%. For the same molecule, the inhibition of growth at 25 ppm (Piricularia oryzae (PIR)) was 100%, the inhibition of growth at 25 ppm (Pythium ultimum (PYU)) was 100% and the inhibition of growth at 25 ppm (Rhizoctonia solani (RHI)) was 100%. The inhibition of growth at 25 ppm (Septoria nodorum (SEP)) was 100%, the inhibition of growth at 25 ppm [8] was 0% and the MIC (THREE FUNGI; [9]) was 25 µg/mL. For the same molecule, the MIC (THREE FUNGI; [10]) was 50 µg/mL, the MIC (THREE FUNGI; [11]) was 12.5 µg/mL and the MIC ([3]; read-out: MIC (G-) PSFL, M9G (minimal salts media with glucose), Table IIIa) was 25 µg/mL. It also gave an MIC ([4]; read-out: MIC (G-) PSAE, M9G (minimal salts media with glucose), Table IIIa) of 125 µg/mL, an MIC (Escherichia coli (ECOL); read-out: MIC (G-) ECOL, M9G (minimal salts media with glucose), Table IIIa) of 64 µg/mL and an MIC ([5]; read-out: MIC (G+) SAUR, M9G (minimal salts media with glucose), Table IIIa) of 500 µg/mL.
